Measured values taken from PMC7791843, “Production of 10-methyl branched fatty acids in yeast” (Biotechnology for Biofuels, 2021).

Biological target: T1, T. curvata BfaA (Thermomonospora curvata, UniProt D1ABB3)
T1 construct: gene Tcur_1573; native gene from genomic DNA (DSMZ), plasmid pNC964 (strain NS1164), crude E. coli cell-free extract
T1 sequence (D1ABB3 1-455): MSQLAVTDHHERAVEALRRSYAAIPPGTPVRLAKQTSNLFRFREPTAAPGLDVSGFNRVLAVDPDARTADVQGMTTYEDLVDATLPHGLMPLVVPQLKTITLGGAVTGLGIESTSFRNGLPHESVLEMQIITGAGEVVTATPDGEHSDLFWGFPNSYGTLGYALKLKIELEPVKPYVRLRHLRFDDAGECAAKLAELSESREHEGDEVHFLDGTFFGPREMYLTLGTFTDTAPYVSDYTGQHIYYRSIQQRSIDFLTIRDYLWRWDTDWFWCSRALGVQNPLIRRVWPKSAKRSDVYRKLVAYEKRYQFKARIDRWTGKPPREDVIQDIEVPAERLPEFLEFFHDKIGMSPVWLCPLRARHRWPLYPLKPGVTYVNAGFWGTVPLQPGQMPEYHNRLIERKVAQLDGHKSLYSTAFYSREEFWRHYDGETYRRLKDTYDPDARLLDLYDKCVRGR
Assay: crude extract assay, GC-FID of 10-methyl fatty acid
Type: biochemical
Conditions: 10 mM NADPH, 37 °C, 16 h; heat-inactivated BfaB lysate with 10-methylene acyl chains

With NC(=O)C1=CN([C@@H]2O[C@H](COP(=O)(O)OP(=O)(O)OC[C@H]3O[C@@H](n4cnc5c(N)ncnc54)[C@H](OP(=O)(O)O)[C@@H]3O)[C@@H](O)[C@H]2O)C=CC1 [NADPH] the “crude extract assay, GC-FID of 10-methyl fatty acid” value was “We detected 10-methylstearic acid production in the presence of NADPH, but not NADH”.
